Measurements: US20260317299A1, “PIKFYVE PROTEIN KINASE DEGRADATION AGENT AND USE THEREOF” (Shanghai Institute of Organic Chemistry, Chinese Academy of …, priority 2023, published 2026)

Molecular target: T1, PIKfyve (Homo sapiens, UniProt Q9Y2I7)
T1 construct: endogenous in cells; host or cells: VCaP
Experiment: Degradation of PIKfyve proteins in VCaP tumor cells (24 h, Western blot)
Format: cell-based
Conditions: 37° C., compared with DMSO control, WB, read-out: DC50 (concentration that achieves 50% degradation activity)
How it was run: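 VCaP cells (5×10^6 cells/ml) treated with a range of compound concentrations at 37° C for 24 h, then lysed in SDS buffer. PIKfyve level measured by Western blot with GAPDH as loading control and ECL detection. DC50 is the concentration giving 50% degradation relative to DMSO control.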

T1 sequence (Q9Y2I7 whole entry): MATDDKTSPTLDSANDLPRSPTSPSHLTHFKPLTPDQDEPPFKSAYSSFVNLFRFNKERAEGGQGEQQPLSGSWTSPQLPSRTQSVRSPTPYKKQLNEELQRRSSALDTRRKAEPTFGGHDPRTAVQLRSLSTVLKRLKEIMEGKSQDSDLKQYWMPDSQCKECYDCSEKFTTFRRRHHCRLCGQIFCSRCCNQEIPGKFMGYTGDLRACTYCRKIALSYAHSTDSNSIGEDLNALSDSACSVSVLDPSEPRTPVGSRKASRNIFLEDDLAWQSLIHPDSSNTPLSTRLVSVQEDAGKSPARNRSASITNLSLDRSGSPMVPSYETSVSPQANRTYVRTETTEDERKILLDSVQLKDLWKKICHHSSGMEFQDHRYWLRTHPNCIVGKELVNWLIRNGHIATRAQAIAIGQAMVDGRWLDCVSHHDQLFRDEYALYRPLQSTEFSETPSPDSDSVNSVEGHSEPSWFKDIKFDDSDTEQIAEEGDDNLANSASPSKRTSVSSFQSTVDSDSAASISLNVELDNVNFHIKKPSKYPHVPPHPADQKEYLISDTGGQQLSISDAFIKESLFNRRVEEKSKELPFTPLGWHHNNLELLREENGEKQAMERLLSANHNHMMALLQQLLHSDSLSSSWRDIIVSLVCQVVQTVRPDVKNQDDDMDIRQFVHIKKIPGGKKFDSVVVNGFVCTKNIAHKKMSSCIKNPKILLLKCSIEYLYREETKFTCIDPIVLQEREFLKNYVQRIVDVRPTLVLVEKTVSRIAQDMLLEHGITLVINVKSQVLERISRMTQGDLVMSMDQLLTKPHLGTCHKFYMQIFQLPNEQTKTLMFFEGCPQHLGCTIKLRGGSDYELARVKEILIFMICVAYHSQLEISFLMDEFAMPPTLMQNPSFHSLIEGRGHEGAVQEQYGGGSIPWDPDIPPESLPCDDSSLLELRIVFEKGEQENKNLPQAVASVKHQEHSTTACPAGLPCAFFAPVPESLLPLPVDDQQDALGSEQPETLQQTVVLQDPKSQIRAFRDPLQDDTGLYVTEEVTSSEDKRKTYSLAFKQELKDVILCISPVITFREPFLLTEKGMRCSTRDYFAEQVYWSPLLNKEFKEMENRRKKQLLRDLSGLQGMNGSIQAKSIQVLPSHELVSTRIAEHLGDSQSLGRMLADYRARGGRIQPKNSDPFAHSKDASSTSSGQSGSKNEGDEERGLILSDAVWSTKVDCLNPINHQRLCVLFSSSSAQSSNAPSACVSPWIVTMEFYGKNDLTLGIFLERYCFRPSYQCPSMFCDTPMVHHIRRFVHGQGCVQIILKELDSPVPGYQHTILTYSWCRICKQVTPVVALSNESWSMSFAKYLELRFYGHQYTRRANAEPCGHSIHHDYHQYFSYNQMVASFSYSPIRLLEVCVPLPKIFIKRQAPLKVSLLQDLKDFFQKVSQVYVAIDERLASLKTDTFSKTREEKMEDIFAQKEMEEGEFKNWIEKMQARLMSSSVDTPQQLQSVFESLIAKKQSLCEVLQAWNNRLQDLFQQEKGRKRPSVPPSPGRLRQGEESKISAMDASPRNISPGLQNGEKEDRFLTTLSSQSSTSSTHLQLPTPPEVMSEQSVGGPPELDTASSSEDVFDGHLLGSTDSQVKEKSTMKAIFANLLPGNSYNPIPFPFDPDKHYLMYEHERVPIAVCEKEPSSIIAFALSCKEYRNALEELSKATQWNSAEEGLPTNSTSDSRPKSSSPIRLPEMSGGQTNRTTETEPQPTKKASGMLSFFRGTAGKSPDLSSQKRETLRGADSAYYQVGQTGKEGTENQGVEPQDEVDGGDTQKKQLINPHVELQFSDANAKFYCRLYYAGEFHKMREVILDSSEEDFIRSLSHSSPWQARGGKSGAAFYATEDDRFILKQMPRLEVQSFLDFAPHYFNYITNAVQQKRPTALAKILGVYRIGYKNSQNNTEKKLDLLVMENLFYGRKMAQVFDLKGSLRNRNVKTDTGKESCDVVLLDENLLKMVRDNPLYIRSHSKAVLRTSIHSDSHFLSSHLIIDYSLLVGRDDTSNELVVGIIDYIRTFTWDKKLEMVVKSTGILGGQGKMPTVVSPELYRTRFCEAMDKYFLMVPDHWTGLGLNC

For `Cc1cccc(-c2ccn(-c3cc(N4CCOCC4)nc(OC4CCN(c5ccc(NC(=O)NC6CN(C(=O)C[C@H](NC(=O)[C@@H]7C[C@@H](O)CN7C(=O)[C@@H](NC(=O)C7(F)CC7)C(C)(C)C)c7ccc(-c8scnc8C)cc7)C6)cc5)CC4)n3)n2)c1` [Example 80, (2S,4R)-1-((S)-2-(1-fluorocyclopropane-1-carboxamido)-3,3-dimethylbutanoyl)-4-hydroxy-N—((S)-1-(4-(4-methylthiazol-5-yl)phenyl)-3-(3-(3-(4-(4-((4-morpholino-6-(3-(m-tolyl)-1H-pyrazol-1-yl)pyrimidin-2-yl)oxy)piperidin-1-yl)phenyl)ureido)azetidin-1-yl)-3-oxopropyl)pyrrolidine-2-carboxamide], which DC50 is on record?
The DC50 was 1 to 100 nM.

Which DC50 does the source give for `Cc1cccc(-c2ccn(-c3cc(N4CCOCC4)nc(OC4CCN(c5ccc(NC(=O)NC6CN(C(=O)CC[C@H](NC(=O)[C@@H]7C[C@@H](O)CN7C(=O)[C@@H](NC(=O)C7(F)CC7)C(C)(C)C)c7ccc(-c8scnc8C)cc7)C6)cc5)CC4)n3)n2)c1` [Example 81, (2S,4R)-1-((S)-2-(1-fluorocyclopropane-1-carboxamido)-3,3-dimethylbutanoyl)-4-hydroxy-N—((S)-1-(4-(4-methylthiazol-5-yl)phenyl)-4-(3-(3-(4-(4-((4-morpholino-6-(3-(m-tolyl)-1H-pyrazol-1-yl)pyrimidin-2-yl)oxy)piperidin-1-yl)phenyl)ureido)azetidin-1-yl)-4-oxobutyl)pyrrolidine-2-carboxamide] here?
Its DC50 is 1 to 100 nM.

Which DC50 does the source give for `Cc1cccc(-c2ccn(-c3cc(N4CCOCC4)nc(OC4CCN(c5ccc(NC(=O)NC6CCN(C(=O)C[C@H](NC(=O)[C@@H]7C[C@@H](O)CN7C(=O)[C@@H](NC(=O)C7(F)CC7)C(C)(C)C)c7ccc(-c8scnc8C)cc7)CC6)cc5)CC4)n3)n2)c1` [Example 82, (2S,4R)-1-((S)-2-(1-fluorocyclopropane-1-carboxamido)-3,3-dimethylbutanoyl)-4-hydroxy-N—((S)-1-(4-(4-methylthiazol-5-yl)phenyl)-3-(4-(3-(4-(4-((4-morpholino-6-(3-(m-tolyl)-1H-pyrazol-1-yl)pyrimidin-2-yl)oxy)piperidin-1-yl)phenyl)ureido)piperidin-1-yl)-3-oxopropyl)pyrrolidine-2-carboxamide] here?
The DC50 was 1 to 100 nM.

For `Cc1cccc(-c2ccn(-c3cc(N4CCOCC4)nc(OC4CCN(c5ccc(NC(=O)NC6CCN(C(=O)CC[C@H](NC(=O)[C@@H]7C[C@@H](O)CN7C(=O)[C@@H](NC(=O)C7(F)CC7)C(C)(C)C)c7ccc(-c8scnc8C)cc7)CC6)cc5)CC4)n3)n2)c1` [Example 83, (2S,4R)-1-((S)-2-(1-fluorocyclopropane-1-carboxamido)-3,3-dimethylbutanoyl)-4-hydroxy-N—((S)-1-(4-(4-methylthiazol-5-yl)phenyl)-4-(4-(3-(4-(4-((4-morpholino-6-(3-(m-tolyl)-1H-pyrazol-1-yl)pyrimidin-2-yl)oxy)piperidin-1-yl)phenyl)ureido)piperidin-1-yl)-4-oxobutyl)pyrrolidine-2-carboxamide], which DC50 is on record?
The DC50 was 1 to 100 nM.

Which DC50 does the source give for `Cc1cccc(-c2ccn(-c3cc(N4CCOCC4)nc(OC4CCN(c5ccc(N6CCN(C(=O)C[C@H](NC(=O)[C@@H]7C[C@@H](O)CN7C(=O)[C@@H](NC(=O)C7(F)CC7)C(C)(C)C)c7ccc(-c8scnc8C)cc7)CC6)cc5)CC4)n3)n2)c1` [Example 84, (2S,4R)-1-((S)-2-(1-fluorocyclopropane-1-carboxamido)-3,3-dimethylbutanoyl)-4-hydroxy-N—((S)-1-(4-(4-methylthiazol-5-yl)phenyl)-3-(4-(4-(4-((4-morpholino-6-(3-(m-tolyl)-1H-pyrazol-1-yl)pyrimidin-2-yl)oxy)piperidin-1-yl)phenyl)piperazin-1-yl)-3-oxopropyl) pyrrolidine-2-carboxamide] here?
The DC50 was 1 to 100 nM.

How did the DC50 turn out when `Cc1cccc(-c2ccn(-c3cc(N4CCOCC4)nc(OC4CCN(c5ccc(N6CCN(C(=O)CC[C@H](NC(=O)[C@@H]7C[C@@H](O)CN7C(=O)[C@@H](NC(=O)C7(F)CC7)C(C)(C)C)c7ccc(-c8scnc8C)cc7)CC6)cc5)CC4)n3)n2)c1` [Example 85, (2S,4R)-1-((S)-2-(1-fluorocyclopropane-1-carboxamido)-3,3-dimethylbutanoyl)-4-hydroxy-N—((S)-1-(4-(4-methylthiazol-5-yl)phenyl)-4-(4-(4-(4-((4-morpholino-6-(3-(m-tolyl)-1H-pyrazol-1-yl)pyrimidin-2-yl)oxy)piperidin-1-yl)phenyl)piperazin-1-yl)-4-oxobutyl) pyrrolidine-2-carboxamide] was run?
Its DC50 is 1 to 100 nM.

`Cc1cccc(-c2ccn(-c3cc(N4CCOCC4)nc(OC4CCN(c5ccc(N6CCN(C(=O)CCCC[C@H](NC(=O)[C@@H]7C[C@@H](O)CN7C(=O)[C@@H](NC(=O)C7(F)CC7)C(C)(C)C)c7ccc(-c8scnc8C)cc7)CC6)cc5)CC4)n3)n2)c1` [Example 86, (2S,4R)-1-((S)-2-(1-fluorocyclopropane-1-carboxamido)-3,3-dimethylbutanoyl)-4-hydroxy-N—((S)-1-(4-(4-methylthiazol-5-yl)phenyl)-6-(4-(4-(4-((4-morpholino-6-(3-(m-tolyl)-1H-pyrazol-1-yl)pyrimidin-2-yl)oxy)piperidin-1-yl)phenyl)piperazin-1-yl)-6-oxohexyl) pyrrolidine-2-carboxamide] was tested. Which DC50 did it give?
Its DC50 is 1 to 100 nM.

For `Cc1cccc(-c2ccn(-c3cc(N4CCOCC4)nc(OCCc4ccc(-c5ccc(NC(=O)C[C@H](NC(=O)[C@@H]6C[C@@H](O)CN6C(=O)[C@@H](NC(=O)C6(F)CC6)C(C)(C)C)c6ccc(-c7scnc7C)cc6)cc5)cc4)n3)n2)c1` [Example 87, (2S,4R)-1-((S)-2-(1-fluorocyclopropane-1-carboxamido)-3,3-dimethylbutanoyl)-4-hydroxy-N—((S)-1-(4-(4-methylthiazol-5-yl)phenyl)-3-((4′-(2-((4-morpholino-6-(3-(m-tolyl)-1H-pyrazol-1-yl)pyrimidin-2-yl)oxy)ethyl)-[1,1′-biphenyl]-4-yl)amino)-3-oxopropyl)pyrrolidine-2-carboxamide], which DC50 is on record?
Its DC50 is 1 to 100 nM.

Which DC50 does the source give for `Cc1cccc(-c2ccn(-c3cc(N4CCOCC4)nc(OCCc4ccc(-c5ccc(NC(=O)CC[C@H](NC(=O)[C@@H]6C[C@@H](O)CN6C(=O)[C@@H](NC(=O)C6(F)CC6)C(C)(C)C)c6ccc(-c7scnc7C)cc6)cc5)cc4)n3)n2)c1` [Example 88, (2S,4R)-1-((S)-2-(1-fluorocyclopropane-1-carboxamido)-3,3-dimethylbutanoyl)-4-hydroxy-N—((S)-1-(4-(4-methylthiazol-5-yl)phenyl)-4-((4′-(2-((4-morpholino-6-(3-(m-tolyl)-1H-pyrazol-1-yl)pyrimidin-2-yl)oxy)ethyl)-[1,1′-biphenyl]-4-yl)amino)-4-oxobutyl)pyrrolidine-2-carboxamide] here?
Its DC50 is 1 to 100 nM.

Which DC50 does the source give for `Cc1cccc(-c2ccn(-c3cc(N4CCOCC4)nc(OC4CCN(c5ccc(N6CCN(c7cc8c(cc7F)C(=O)N(C7CCC(=O)NC7=O)C8=O)CC6)cc5)CC4)n3)n2)c1` (stereo not shown) [Example 89, 2-(2,6-Dioxopiperidin-3-yl)-5-fluoro-6-(4-(4-(4-((4-morpholino-6-(3-(m-tolyl)-1H-pyrazol-1-yl)pyrimidin-2-yl)oxy)piperidin-1-yl)phenyl)piperazin-1-yl)isoindoline-1,3-dione] here?
The DC50 was 100 to 10000 nM.
